One experiment has as its target PIM1 (Homo sapiens (Human), UniProt P11309). Nature of the experiment: Pim kinase inhibition, PIM1 LC3K (Example 901). The experiment is classed as biochemical.
A further experiment deals with BaF3 parental cells. Nature of the experiment: In vitro cell proliferation, BaF3 parental line + IL3 (CellTiter-Glo). As to conditions: Mus musculus, BaF3, BaF3 parental cells with IL-3, incubated overnight. The class given is cell-based, murine.
Experiment [1] deals with MM1.S (multiple myeloma) cells. The experiment can be described thus: In vitro cell proliferation, MM1.S multiple myeloma cells (CellTiter-Glo, ATP). The experiment is classed as cell-based. As to conditions: Homo sapiens, MM1.S, 72 h, read-out: Prolif MM1S ATP (EC50). The gist of the method:
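BaF3 parental cells (medium with 2 ng/mL mIL-3) seeded at 2 k/well and MM1.S at 10 k/well, then exposed to test compound at 37° C, 5% CO2: BaF3 overnight, MM1.S for 72 hours. Viability read by CellTiter-Glo; IC50/EC50 values calculated.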

For the next experiment, the system named is BaF3 PIM1 cells. Nature of the experiment: cells. As to conditions: Mus musculus.
Setting [2] is: read-out: Prolif BaF3 + IL3 (IC50).
The mark [3] stands for this setting: BaF3, read-out: Prolif BaF3_PIM1 (IC50), BaF3 PIM1 cells, incubated overnight.
[4] abbreviates: read-out: Prolif BaF3 IL3 (IC50).
Setting [5] is: BaF3, read-out: Prolif BaF3 PIM1 (IC50), BaF3 PIM1 cells, incubated overnight.

The structures appear in SMILES notation. pEC50, pIC50, pKi: −log10 of the molar value. Where two headings read alike, the source gives them in different places.

Chain of PIM1 (P11309 whole entry): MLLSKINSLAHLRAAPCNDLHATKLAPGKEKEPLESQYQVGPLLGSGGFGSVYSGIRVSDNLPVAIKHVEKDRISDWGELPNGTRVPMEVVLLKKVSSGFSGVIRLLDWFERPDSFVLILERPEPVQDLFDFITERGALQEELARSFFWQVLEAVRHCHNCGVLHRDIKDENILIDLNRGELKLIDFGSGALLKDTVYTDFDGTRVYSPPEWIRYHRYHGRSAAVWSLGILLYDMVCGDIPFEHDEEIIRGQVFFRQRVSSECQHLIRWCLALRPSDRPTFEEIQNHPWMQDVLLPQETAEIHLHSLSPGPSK
Description for BaF3 parental cells: BaF3 parental line was obtained from the DSMZ repository. BaF3 lines transfected with PIM 1 or PIM2 were generated. Mouse IL-3 was purchased from R&D Systems. G418 was purchased from Clontech. Media for BaF3 parental line contained RPMI, 10% FBS, 2 mM L-Glutamine, 2 ng/mL mIL-3. Media for BaF3 PIM1 & 2 lines contained RPMI, 10% FBS, 2 mM L-Glutamine, 250 μg/mL.
BaF3, a murine interleukin-3 dependent pro-B cell line, parental cells, BaF3 PIM1 cells, BaF3 PIM2 cells, and MM1.S (multiple myeloma) cells were seeded at 2 k/well, 5 k/well, 5 k/well, and 10 k/well respectively, in a 384-well plate, at 45 μL/well. Test compound was added at 5 μL/well. BaF3 cells (parental and transfected) were incubated overnight, while MM1.S cells were incubated for 72 hours at 37° C., 5% CO2. CELL TITER GLO® Reagent (Promega) was added at 50 μL/well, the plates were incubated for 30 minutes, and their luminescence read on an HT Analyst. IC50/EC50 values for the test compound were calculated.

Consider `COC1(C)CC(N)CCN(c2c(NC(=O)c3nc(-c4ccncc4F)sc3N)cnn2C)C1` (racemic) [Example 441, 5-amino-N-[5-(5-amino-3-methoxy-3-methyl-azepan-1-yl)-1-methyl-pyrazol-4-yl]-2-(3-fluoro-4-pyridyl)thiazole-4-carboxamide], for which, on PIM1, the pKi was 10.57. Moreover, the negative logarithm of the IC50 (pIC50) in the experiment with BaF3 parental cells (setting [2]) is less than 4.60; with BaF3 PIM1 cells (setting [3]) it was 7.88. Further, the pEC50 in experiment [1] was 7.41.
For `Nc1sc(-c2c(F)cccc2F)nc1C(=O)Nc1cnn(C2CC2)c1N1CCC(N)C(F)CC1` (single isomer, unassigned) [Example 331, 5-amino-N-[5-(4-amino-5-fluoro-azepan-1-yl)-1-cyclopropyl-pyrazol-4-yl]-2-(2,6-difluorophenyl)thiazole-4-carboxamide], in that order: 10.19, 4.87, 6.82 and 6.78.
For `Cn1ncc(NC(=O)c2nc(-c3ccncc3F)sc2N)c1N1CC[C@H](N)CC(F)(F)C1` (single isomer, unassigned) [Example 446], in that order: 11.00, 4.63, 8.35 and 5.04.
Taken in the same sequence, the figures for `Cn1ncc(NC(=O)c2nc(-c3c(F)cncc3F)sc2N)c1N1CC[C@H](N)CC(F)(F)C1` (single isomer, unassigned) [Example 454] were 10.64, 4.75, 8.66 and 5.43.
Regarding `Cn1ncc(NC(=O)c2nc(-c3ccccc3F)sc2N)c1N1CCNC[C@]2(CCO2)C1` (single isomer, unassigned) [Example 480], at PIM1, the pKi was 10.35. For the same molecule, the pIC50 was 5.15 in the experiment with BaF3 parental cells (setting [2]) and 6.13 in the experiment on BaF3 PIM1 cells (setting [3]). The pEC50 in experiment [1] was 5.21.
With `Cn1ncc(NC(=O)c2nc(-c3c(F)cncc3F)sc2N)c1N1CC[C@H](N)[C@@H](F)CC1` (stereo in doubt) [Example 472, 5-amino-N-[5-[(4S,5S)-4-amino-5-fluoro-azepan-1-yl]-1-methyl-pyrazol-4-yl]-2-(3,5-difluoro-4-pyridyl)thiazole-4-carboxamide], the pKi at PIM1 was 10.07. The pIC50 was 4.73 in the experiment with BaF3 parental cells (setting [2]) and 7.19 in the experiment with BaF3 PIM1 cells (setting [3]). For the same molecule, in experiment [1], the pEC50 was 5.25.
`Cn1ncc(NC(=O)c2nc(-c3cc(F)ccc3F)sc2N)c1N1CCNCC(F)(F)C1` [Example 106, 5-Amino-N-(5-(6,6-difluoro-1,4-diazepan-1-yl)-1-methyl-1H-pyrazol-4-yl)-2-(2,5-difluorophenyl)thiazole-4-carboxamide] gave a pKi at PIM1 of 10.52. Besides, the pIC50 was 4.81 in the experiment with BaF3 parental cells (setting [4]) and 6.25 in the experiment with BaF3 PIM1 cells (setting [5]). The pEC50 in experiment [1] is 5.72.
Taken in the same sequence, the figures for `CN[C@@H]1CCCN(c2c(NC(=O)c3nc(-c4c(F)cccc4F)sc3N)cnn2CC(F)F)CC1` [Example 107, (R)-5-Amino-N-(1-(2,2-difluoroethyl)-5-(4-(methylamino)azepan-1-yl)-1H-pyrazol-4-yl)-2-(2,6-difluorophenyl)thiazole-4-carboxamide] were 10.10, 5.29, 6.80 and 6.41.
Taken in the same sequence, the figures for `CN[C@@H]1CCCN(c2c(NC(=O)c3nc(-c4cc(F)ccc4F)sc3N)cnn2CC(F)F)CC1` [Example 108, (R)-5-Amino-N-(1-(2,2-difluoroethyl)-5-(4-(methylamino)azepan-1-yl)-1H-pyrazol-4-yl)-2-(2,5-difluorophenyl)thiazole-4-carboxamide] were 9.37, 5.31, 6.49 and 5.85.
For `CN[C@@H]1CCCN(c2c(NC(=O)c3nc(-c4cc(C)ccc4F)sc3N)cnn2CC(F)F)CC1` [Example 109, (R)-5-Amino-N-(1-(2,2-difluoroethyl)-5-(4-(methylamino)azepan-1-yl)-1H-pyrazol-4-yl)-2-(2-fluoro-5-methylphenyl)thiazole-4-carboxamide], in that order: 10.01, 5.29, 6.11 and 5.41.
`Cn1ncc(NC(=O)c2nc(-c3c(F)ccc(C4CC4)c3F)sc2N)c1N1CCC[C@@H](N)CC1` [Example 115, (R)-5-amino-N-(5-(4-aminoazepan-1-yl)-1-methyl-1H-pyrazol-4-yl)-2-(3-cyclopropyl-2,6-difluorophenyl)thiazole-4-carboxamide]: the pKi at PIM1 is 10.82. Also, the negative-log IC50 (pIC50) is 5.24 with BaF3 parental cells (setting [4]) and 7.06 in the experiment on BaF3 PIM1 cells (setting [5]). Further, in experiment [1], the pEC50 was 6.38.
The molecule `Cc1ccc(F)c(-c2nc(C(=O)Nc3cnn(C)c3N3CCC[C@@H](N)CC3)c(N)s2)c1F` [Example 116, (R)-5-amino-N-(5-(4-aminoazepan-1-yl)-1-methyl-1H-pyrazol-4-yl)-2-(2,6-difluoro-3-methylphenyl)thiazole-4-carboxamide] gave a pKi on PIM1 of 11.00. Further, the values for the pIC50 in the experiment on BaF3 parental cells (setting [4]) and in the experiment on BaF3 PIM1 cells (setting [5]) were 5.09 and 7.20, respectively. In addition, the pEC50 in experiment [1] is 6.91.
Molecule `CN[C@H]1CCCN(c2c(NC(=O)c3nc(-c4cc(C)ccc4F)sc3N)cnn2CC(F)F)CC1` [Example 119, (S)-5-Amino-N-(1-(2,2-difluoroethyl)-5-(4-(methylamino)azepan-1-yl)-1H-pyrazol-4-yl)-2-(2-fluoro-5-methylphenyl)thiazole-4-carboxamide] gave a pKi on PIM1 of 10.36. In addition, the pIC50 with BaF3 parental cells (setting [4]) was 5.25; in the experiment with BaF3 PIM1 cells (setting [5]), 6.67. For the same molecule, the pEC50 in experiment [1] is 5.52.
For `Nc1sc(-c2cc(F)ccc2F)nc1C(=O)Nc1cnn(CC(F)F)c1N1CCC[C@@H](N)CC1` [Example 161, (R)-5-amino-N-(5-(4-aminoazepan-1-yl)-1-(2,2-difluoroethyl)-1H-pyrazol-4-yl)-2-(2,5-difluorophenyl)thiazole-4-carboxamide], in that order: 9.92, 5.22, 6.39 and 6.80.
Taken in the same sequence, the figures for `Cn1ncc(NC(=O)c2nc(-c3ccccn3)sc2N)c1N1CCNCC(F)(F)C1` [Example 223, 5-amino-N-(5-(6,6-difluoro-1,4-diazepan-1-yl)-1-methyl-1H-pyrazol-4-yl)-2-(pyridin-2-yl)thiazole-4-carboxamide] were 9.69, 4.90, 6.26 and 4.69.
On PIM1, `COC1CCN(c2c(NC(=O)c3nc(-c4ccccc4F)sc3N)cnn2C)CCC1N` (centres unmarked) [Example 324, 5-amino-N-[5-(4-amino-5-methoxy-azepan-1-yl)-1-methyl-pyrazol-4-yl]-2-(2-fluorophenyl)thiazole-4-carboxamide] had a pKi of 10.16. The values for the pIC50 in the experiment on BaF3 parental cells (setting [2]) and in the experiment on BaF3 PIM1 cells (setting [3]) were 4.71 and 7.47, respectively. Also, in experiment [1], the pEC50 was 7.49.
At PIM1, `COC1CCN(c2c(NC(=O)c3nc(-c4cc(C)ccc4F)sc3N)cnn2C)CCC1N` (centres unmarked) [Example 325, 5-amino-N-[5-(4-amino-5-methoxy-azepan-1-yl)-1-methyl-pyrazol-4-yl]-2-(2-fluoro-5-methyl-phenyl)thiazole-4-carboxamide] gave a pKi of 9.82. The values for the pIC50 in the experiment on BaF3 parental cells (setting [2]) and in the experiment on BaF3 PIM1 cells (setting [3]) were 4.78 and 6.72, respectively. Further, the pEC50 in experiment [1] was 6.12.

(Values after patent publication US8614206B2 (Genentech, Inc., priority 2011, dated 2013).)
